Assay results reported in patent publication US20200222474A1, “COMPOSITIONS AND METHODS FOR INCREASING PHYTOCHEMICAL BIOAVAILABLITY AND BIOACTIVITY” (North Carolina State University, priority 2017, published 2020).

System: L. acidophilus NCFM
Experiment: RNA-seq transcriptional analysis of L. acidophilus NCFM growing on plant glycosides
Assay type: cell-based, Lactobacillus acidophilus
[1] = gene LBA0282 (Hypothetical protein)
[2] = gene LBA0327 (Replication protein)
[3] = gene LBA0328 (Hypothetical protein)
[4] = gene LBA0330 (Hypothetical protein)
[5] = gene LBA0457 (Hypothetical protein)
[6] = gene LBA0485 (Hypothetical protein)
[7] = gene LBA0486 (Hypothetical protein)
[8] = gene LBA0487 (Hypothetical protein.)
[9] = gene LBA0492 (Hypothetical protein)
[10] = gene LBA0541 (Cadmium-transporting ATPase)
[11] = gene LBA0542 (Putative heavy-metal-transporting alpase)
[12] = gene LBA0543 (Hypothetical protein)
[13] = gene LBA0544 (Transcriptional regulator)
[14] = gene LBA0555 (Myosin-crossreactive antigen)
[15] = gene LBA0564 (HAD family hydrolase)
[16] = gene LBA0574 (ABC multi drug exporter)
[17] = gene LBA0575 (ABC multi drug exporter)
[18] = gene LBA0604 (Immunity protein)
[19] = gene LBA0605 (Putative hydrolase)
[20] = gene LBA0608 (Hypothetical protein)
[21] = gene LBA0631 (Hypothetical protein)
[22] = gene LBA0649 (Myosin-crossreactive antigen)
[23] = gene LBA0728 (Hypothetical protein LBA0728)
[24] = gene LBA1025 (Aldo/keto reductase family oxidoreductase)
[25] = gene LBA1026 (Aldo/keto reduetase family oxidoreductase)
[26] = gene LBA1206 (Hypothetical protein)
[27] = gene LBA1401 (Peroxidase (Npx))
[28] = gene LBA1435 (Hypothetical protein)
[29] = gene LBA1455 (Putative surface layer protein)
[30] = gene LBA1469 (UDP-glucose 4-epimerase)
[31] = gene LBA1656 (Hypothetical protein)
[32] = gene LBA1675 (Hypothetical protein)
[33] = gene LBA1676 (ATP-dependent helicase)
[34] = gene LBA1683 (Putative magnesium-transporting atpase)
[35] = gene LBA1704 (N-Acetylmuramic acid-6-phosphate etherase)
[36] = gene LBA1740 (Hypothetical protein)
[37] = gene LBA1752 (Hypothetical protein)
[38] = gene LBA1769 (Hypothetical protein)
[39] = gene LBA1793 (Hypothetical protein)
[40] = gene LBA1869 (Beta-phosphoglueomutase)
[41] = gene LBA1895 (Hypothetical protein)
[42] = nTPM on plant glycoside relative to glucose, mid-exponential phase

OCc1ccccc1O[C@@H]1O[C@H](CO)[C@@H](O)[C@H](O)[C@H]1O [Salicin]
Log2 differential normalized TPM ratio compared to lactose [1]: 0
Transcripts per million (rpm) [1]: 34.3 rpm
Log2 differential normalized TPM ratio compared to glucose [2]: 0
Log2 differential normalized TPM ratio compared to lactose [2]: −0.3
Transcripts per million (rpm) [2]: 8.1 rpm
Log2 differential normalized TPM ratio compared to glucose [3]: −0.1
Log2 differential normalized TPM ratio compared to lactose [3]: 0
Transcripts per million (rpm) [3]: 13.3 rpm
Log2 differential normalized TPM ratio compared to glucose [4]: 0.4
Log2 differential normalized TPM ratio compared to lactose [4]: 0
Transcripts per million (rpm) [4]: 27.3 rpm
Log2 differential normalized TPM ratio compared to glucose [5]: 1.8
Log2 differential normalized TPM ratio compared to lactose [5]: 0.8
Transcripts per million (rpm) [5]: 1746 rpm
Log2 differential normalized TPM ratio compared to glucose [6]: 1.9
Log2 differential normalized TPM ratio compared to lactose [6]: −0.5
Transcripts per million (rpm) [6]: 770.3 rpm
Log2 differential normalized TPM ratio compared to glucose [7]: 2.4
Log2 differential normalized TPM ratio compared to lactose [7]: −0.4
Transcripts per million (rpm) [7]: 1205 rpm
Log2 differential normalized TPM ratio compared to glucose [8]: 1.5
Log2 differential normalized TPM ratio compared to lactose [8]: 0.2
Transcripts per million (rpm) [8]: 96.1 rpm
Log2 differential normalized TPM ratio compared to glucose [9]: 2
Log2 differential normalized TPM ratio compared to lactose [9]: −0.5
Transcripts per million (rpm) [9]: 32.8 rpm
Log2 differential normalized TPM ratio compared to glucose [10]: 2
Log2 differential normalized TPM ratio compared to lactose [10]: −0.3
Transcripts per million (rpm) [10]: 143.6 rpm
Log2 differential normalized TPM ratio compared to glucose [11]: 1.8
Log2 differential normalized TPM ratio compared to lactose [11]: −0.4
Transcripts per million (rpm) [11]: 311.6 rpm
Log2 differential normalized TPM ratio compared to glucose [12]: 2
Log2 differential normalized TPM ratio compared to lactose [12]: −0.4
Transcripts per million (rpm) [12]: 266.3 rpm
Log2 differential normalized TPM ratio compared to glucose [13]: 1.7
Log2 differential normalized TPM ratio compared to lactose [13]: −0.3
Transcripts per million (rpm) [13]: 342.8 rpm
Log2 differential normalized TPM ratio compared to glucose [14]: 1.4
Log2 differential normalized TPM ratio compared to lactose [14]: −0.5
Transcripts per million (rpm) [14]: 118.8 rpm
Log2 differential normalized TPM ratio compared to glucose [15]: 0.4
Log2 differential normalized TPM ratio compared to lactose [15]: −0.2
Transcripts per million (rpm) [15]: 1.4 rpm
Log2 differential normalized TPM ratio compared to glucose [16]: −0.7
Log2 differential normalized TPM ratio compared to lactose [16]: −1
Transcripts per million (rpm) [16]: 54.6 rpm
Log2 differential normalized TPM ratio compared to glucose [17]: −0.5
Log2 differential normalized TPM ratio compared to lactose [17]: −0.8
Transcripts per million (rpm) [17]: 55.6 rpm
Log2 differential normalized TPM ratio compared to glucose [18]: −0.1
Log2 differential normalized TPM ratio compared to lactose [18]: −0.6
Transcripts per million (rpm) [18]: 14.3 rpm
Log2 differential normalized TPM ratio compared to glucose [19]: 1.2
Log2 differential normalized TPM ratio compared to lactose [19]: 0.2
Transcripts per million (rpm) [19]: 6.3 rpm
Log2 differential normalized TPM ratio compared to glucose [20]: 1.4
Log2 differential normalized TPM ratio compared to lactose [20]: 0.3
Transcripts per million (rpm) [20]: 95.4 rpm
Log2 differential normalized TPM ratio compared to glucose [21]: 2.9
Log2 differential normalized TPM ratio compared to lactose [21]: −0.2
Transcripts per million (rpm) [21]: 9342.6 rpm
Log2 differential normalized TPM ratio compared to glucose [22]: 1.6
Log2 differential normalized TPM ratio compared to lactose [22]: 0.8
Transcripts per million (rpm) [22]: 116.3 rpm
Log2 differential normalized TPM ratio compared to glucose [23]: 4.1
Log2 differential normalized TPM ratio compared to lactose [23]: 2.3
Transcripts per million (rpm) [23]: 43.8 rpm
Log2 differential normalized TPM ratio compared to lactose (gene LBA0802 (Hypothetical protein)): −0.2
Log2 differential normalized TPM ratio compared to glucose (gene LBA0861 (Polyferredoxin)): 0.1
Log2 differential normalized TPM ratio compared to lactose (gene LBA0861 (Polyferredoxin)): −0.5
Transcripts per million (rpm) (gene LBA0861 (Polyferredoxin)): 196.3 rpm
Log2 differential normalized TPM ratio compared to glucose (gene LBA1023 (Oxidoreductase)): −0.4
Log2 differential normalized TPM ratio compared to lactose (gene LBA1023 (Oxidoreductase)): −0.7
Transcripts per million (rpm) (gene LBA1023 (Oxidoreductase)): 132.8 rpm
Log2 differential normalized TPM ratio compared to glucose [24]: −0.4
Log2 differential normalized TPM ratio compared to lactose [24]: −0.5
Transcripts per million (rpm) [24]: 23.7 rpm
Log2 differential normalized TPM ratio compared to glucose [25]: −0.3
Log2 differential normalized TPM ratio compared to lactose [25]: −0.8
Transcripts per million (rpm) [25]: 26.1 rpm
Log2 differential normalized TPM ratio compared to glucose (gene LBA1027 (Oxidoreductase)): 2.2
Log2 differential normalized TPM ratio compared to lactose (gene LBA1027 (Oxidoreductase)): 0.6
Transcripts per million (rpm) (gene LBA1027 (Oxidoreductase)): 2726.8 rpm
Log2 differential normalized TPM ratio compared to glucose [26]: 1.5
Log2 differential normalized TPM ratio compared to lactose [26]: 0.3
Transcripts per million (rpm) [26]: 391.2 rpm
Log2 differential normalized TPM ratio compared to glucose [27]: 2.7
Log2 differential normalized TPM ratio compared to lactose [27]: 0.6
Transcripts per million (rpm) [27]: 466.6 rpm
Log2 differential normalized TPM ratio compared to glucose [28]: 3.6
Log2 differential normalized TPM ratio compared to lactose [28]: −0.2
Transcripts per million (rpm) [28]: 52.5 rpm
Log2 differential normalized TPM ratio compared to glucose [29]: 0.1
Log2 differential normalized TPM ratio compared to lactose [29]: −1.6
Transcripts per million (rpm) [29]: 18.3 rpm
Log2 differential normalized TPM ratio compared to glucose [30]: 1.4
Log2 differential normalized TPM ratio compared to lactose [30]: −3.6
Transcripts per million (rpm) [30]: 235.5 rpm
Log2 differential normalized TPM ratio compared to glucose [31]: 0.9
Log2 differential normalized TPM ratio compared to lactose [31]: 0.3
Transcripts per million (rpm) [31]: 38.2 rpm
Log2 differential normalized TPM ratio compared to glucose [32]: 2
Log2 differential normalized TPM ratio compared to lactose [32]: 0.5
Transcripts per million (rpm) [32]: 1669.1 rpm
Log2 differential normalized TPM ratio compared to glucose [33]: 1.7
Log2 differential normalized TPM ratio compared to lactose [33]: 0.5
Transcripts per million (rpm) [33]: 1070.6 rpm
Log2 differential normalized TPM ratio compared to glucose [34]: 0.3
Log2 differential normalized TPM ratio compared to lactose [34]: 0.5
Transcripts per million (rpm) [34]: 20.2 rpm
Log2 differential normalized TPM ratio compared to glucose [35]: 0.7
Log2 differential normalized TPM ratio compared to lactose [35]: 0.1
Transcripts per million (rpm) [35]: 11.6 rpm
Log2 differential normalized TPM ratio compared to glucose [36]: 0.3
Log2 differential normalized TPM ratio compared to lactose [36]: −0.5
Transcripts per million (rpm) [36]: 23.1 rpm
Log2 differential normalized TPM ratio compared to glucose [37]: 0.6
Log2 differential normalized TPM ratio compared to lactose [37]: −0.3
Transcripts per million (rpm) [37]: 13 rpm
Log2 differential normalized TPM ratio compared to glucose [38]: 1.8
Log2 differential normalized TPM ratio compared to lactose [38]: −0.1
Transcripts per million (rpm) [38]: 5527.5 rpm
Log2 differential normalized TPM ratio compared to glucose [39]: 1.2
Log2 differential normalized TPM ratio compared to lactose [39]: −1.7
Transcripts per million (rpm) [39]: 37.8 rpm
Log2 differential normalized TPM ratio compared to glucose (gene LBA1796 (ABC exporter)): 1
Log2 differential normalized TPM ratio compared to lactose (gene LBA1796 (ABC exporter)): −1.6
Transcripts per million (rpm) (gene LBA1796 (ABC exporter)): 18.3 rpm
Log2 differential normalized TPM ratio compared to glucose [40]: 2.4
Log2 differential normalized TPM ratio compared to lactose [40]: −0.1
Transcripts per million (rpm) [40]: 43.1 rpm
Log2 differential normalized TPM ratio compared to glucose [41]: 0.7
Log2 differential normalized TPM ratio compared to lactose [41]: 0.5
Transcripts per million (rpm) [41]: 46.2 rpm
Log2 Ratio vs Glc, LBA0225 Phospho-β-glucosidase (GH1) [42]: −0.1
Log2 Ratio vs Glc, LBA0227 PTS EIIC [42]: 0.9
Log2 Ratio vs Glc, LBA0228 Transcriptional regulator [42]: 0.1
Log2 Ratio vs Glc, LBA0466 Phosphoenolpyruvate carboxykinase (ATP) [42]: 1.3
Log2 Ratio vs Glc, LBA0491 PTS EIIC [42]: 1.5
Log2 Ratio vs Glc, LBA0492 Hypothetical protein [42]: 2
Log2 Ratio vs Glc, LBA0555 Myosin-cross-reactive antigen/Fatty acid hydratase [42]: 1.4
Log2 Ratio vs Glc, LBA0606 PTS EIIBC [42]: 2.5
Log2 Ratio vs Glc, LBA0631 Hypothetical protein [42]: 2.9
Log2 Ratio vs Glc, LBA0724 Transcriptional regulator (antiterminator) [42]: 5.3
Log2 Ratio vs Glc, LBA0725 PTS EIICBA [42]: 8.9
Log2 Ratio vs Glc, LBA0726 Phospho-β-glucosidase (GH1) [42]: 6.2
Log2 Ratio vs Glc, LBA0728 Hypothetical protein [42]: 4.1
Log2 Ratio vs Glc, LBA0876 PTS EIIC [42]: 2.4
Log2 Ratio vs Glc, LBA0877 PTS EIIA [42]: 1.3
Log2 Ratio vs Glc, LBA1401 Peroxidase (Npx) [42]: 2.7
Log2 Ratio vs Glc, LBA1411 Fumarate reductase flavoprotein subunit [42]: 1.4
Log2 Ratio vs Glc, LBA1433 Dihydroxyacetone kinase [42]: 2.7
Log2 Ratio vs Glc, LBA1434 Dihydroxyacetone kinase [42]: 3.3
Log2 Ratio vs Glc, LBA1435 Hypothetical protein [42]: 3.6
Log2 Ratio vs Glc, LBA1436 Glycerol uptake facilitator protein [42]: 3.8
Log2 Ratio vs Glc, LBA1632 NAD-dependent aldehyde dehydrogenase [42]: 2
Log2 Ratio vs Glc, LBA1684 PTS EIIA [42]: 2.6
Log2 Ratio vs Glc, LBA1689 Maltose-6′-phosphate glucosidase (GH4) [42]: 3.7
Log2 Ratio vs Glc, LBA1701 Melibiose operon regulatory protein [42]: 1
Log2 Ratio vs Glc, LBA1709 Mucus binding protein precursor [42]: 0.5
Log2 Ratio vs Glc, LBA1797 Hypothetical protein [42]: 1.3
Log2 Ratio vs Glc, LBA1812 α-Glucosidase II (GH31) [42]: 2.2
Log2 Ratio vs Glc, LBA1869 β-Phosphoglucomutase [42]: 2.4
Log2 Ratio vs Glc, LBA1871 Neopullulanase (GH13) [42]: 0.9
Log2 Ratio vs Glc, LBA1873 Acetate kinase [42]: 1.2
Log2 Ratio vs Glc, LBA1974 Pyruvate oxidase [42]: 1.8
